Assay results published in PubChem BioAssay AID330 (DTP/NCI, 2004).
Where “and” joins values, the source holds several entries; their conditions need not be identical. Equal values may be shown once. Toxic doses and inconclusive results are not listed. How the source made its calls: active means survival T/C of 150% or more; inactive means T/C below 125% in these data.

Tested on: P388 leukemia ip, CD2F1 mice, survival T/C
Experiment: NCI In Vivo Anticancer Drug Screen. Data for tumor model P388 Leukemia (intraperitoneal) in CD2F1 (CDF1) mice
Settings: endpoint: median survival time, higher = longer survival
How it was run: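 Mice carrying the transplanted tumor received test compound or vehicle. Survival was recorded in each group, and the value is the treated-group measurement divided by that of the vehicle-treated control group.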

[1] = dose: 50.0 mg/kg/injection, schedule: Q01DX005 (ip), vehicle: saline
[2] = dose: 100.0 mg/kg/injection, schedule: Q01DX005 (ip), vehicle: saline
[3] = dose: 200.0 mg/kg/injection, schedule: Q01DX005 (ip), vehicle: saline
[4] = dose: 50.0 mg/kg/injection, schedule: Q01DX009 (ip), vehicle: saline
[5] = dose: 100.0 mg/kg/injection, schedule: Q01DX009 (ip), vehicle: saline
[6] = dose: 200.0 mg/kg/injection, schedule: Q01DX009 (ip), vehicle: saline
[7] = dose: 50.0 mg/kg/injection, schedule: Q01DX005 (ip), vehicle: saline with Tween-80
[8] = dose: 100.0 mg/kg/injection, schedule: Q01DX005 (ip), vehicle: saline with Tween-80
[9] = dose: 200.0 mg/kg/injection, schedule: Q01DX005 (ip), vehicle: saline with Tween-80
[10] = dose: 50.0 mg/kg/injection, schedule: Q01DX005 (ip), vehicle: Klucel (hydroxypropylcellulose) (HPC)
[11] = dose: 100.0 mg/kg/injection, schedule: Q01DX005 (ip), vehicle: Klucel (hydroxypropylcellulose) (HPC)
[12] = dose: 200.0 mg/kg/injection, schedule: Q01DX005 (ip), vehicle: Klucel (hydroxypropylcellulose) (HPC)
[13] = dose: 200.0 mg/kg/injection, schedule: Q04DX003 (ip), vehicle: saline with Tween-80
[14] = dose: 400.0 mg/kg/injection, schedule: Q04DX003 (ip), vehicle: saline with Tween-80

Measured: T/C

COc1cc2oc3cc(=O)cc4oc(-c5ccccc5)cc(c2c2c1CCC(c1ccccc1)O2)c43 (stereo not drawn)
inactive: dose: 3.25 mg/kg/injection, schedule: Q01DX005 (ip), vehicle: Klucel + Tween-80 98 % of control | dose: 6.5 mg/kg/injection, schedule: Q01DX005 (ip), vehicle: Klucel + Tween-80 99 % of control | dose: 13.0 mg/kg/injection, schedule: Q01DX005 (ip), vehicle: Klucel + Tween-80 103 % of control | dose: 26.0 mg/kg/injection, schedule: Q01DX005 (ip), vehicle: Klucel + Tween-80 107 % of control

Oc1ccccc1C=NCCN1CC1.Oc1ccccc1C=NCCN1CC1.[Co+2]
inactive: dose: 4.7 mg/kg/injection, schedule: Q01DX009 (ip), vehicle: saline 103 % of control | dose: 9.4 mg/kg/injection, schedule: Q01DX009 (ip), vehicle: saline 102 % of control | dose: 18.8 mg/kg/injection, schedule: Q01DX009 (ip), vehicle: saline 100 % of control | dose: 37.5 mg/kg/injection, schedule: Q01DX009 (ip), vehicle: saline 100 % of control and 97 % of control

COC(=O)C1=CO[C@@H](OC2OC(CO)C(O)C(O)C2O)[C@@H]2[C@H](C)[C@@H](O)[C@@H](O)[C@]12O (stereo partly drawn)
inactive: dose: 25.0 mg/kg/injection, schedule: Q01DX005 (ip), vehicle: saline 115 % of control | [1] 100 % of control | [2] 106 % of control | [3] 106 % of control

O=C(CCl)NC(Cc1ccccc1F)C(=O)O (stereo not drawn)
inactive: [4] 106 % of control | [5] 102 % of control | [6] 101 % of control

CCOC(=O)C1C2(C)NC(=O)C1(Cc1ccccc1)c1ccc(O)cc1O2 (stereo not drawn)
inactive: [7] 95 % of control | [8] 96 % of control | [9] 95 % of control

C=CC(=O)NC(CSCc1ccccc1)C(=O)O (stereo not drawn)
inactive: [10] 98 % of control | [11] 109 % of control | [12] 98 % of control

CCCCCCCCCCCC1=C(O)C(=O)C(CC2=C(O)C(=O)C(CCCCCCCCCCC)=C(O)C2=O)=C(O)C1=O
inactive: dose: 25.0 mg/kg/injection, schedule: Q01DX005 (ip), vehicle: Klucel + Tween-80 97 % of control | [10] 86 % of control | dose: 50.0 mg/kg/injection, schedule: Q01DX005 (ip), vehicle: Klucel + Tween-80 91 % of control | dose: 100.0 mg/kg/injection, schedule: Q01DX005 (ip), vehicle: Klucel + Tween-80 91 % of control | [12] 89 % of control

Nc1nnc2nc(CC(=O)c3ccccc3)c(CC(=O)c3ccccc3)nn12
inactive: dose: 60.0 mg/kg/injection, schedule: Q01DX005 (ip), vehicle: saline 95 % of control | dose: 120.0 mg/kg/injection, schedule: Q01DX005 (ip), vehicle: saline 94 % of control | dose: 240.0 mg/kg/injection, schedule: Q01DX005 (ip), vehicle: saline 100 % of control

CN(C)CCC(=O)c1cccc(O)c1
inactive: dose: 25.0 mg/kg/injection, schedule: Q01DX009 (ip), vehicle: saline 107 % of control | [4] 98 % of control and 105 % of control | [5] 98 % of control and 109 % of control | [6] 97 % of control

O=[N+]([O-])c1ccccc1/C(=N\O)c1cccs1
inactive: dose: 100.0 mg/kg/injection, schedule: Q04DX002 (ip), vehicle: Klucel (hydroxypropylcellulose) (HPC) 107 % of control | dose: 200.0 mg/kg/injection, schedule: Q04DX002 (ip), vehicle: Klucel (hydroxypropylcellulose) (HPC) 100 % of control

CCCCCCCCCCCCCC1=C(O)C(=O)C=C(O)C1=O
inactive: dose: 1.0 mg/kg/injection, schedule: Q01DX005 (ip), vehicle: Klucel (hydroxypropylcellulose) (HPC) 100 % of control | dose: 2.0 mg/kg/injection, schedule: Q01DX005 (ip), vehicle: Klucel (hydroxypropylcellulose) (HPC) 105 % of control | dose: 4.0 mg/kg/injection, schedule: Q01DX005 (ip), vehicle: Klucel (hydroxypropylcellulose) (HPC) 95 % of control | dose: 8.0 mg/kg/injection, schedule: Q01DX005 (ip), vehicle: Klucel (hydroxypropylcellulose) (HPC) 102 % of control | dose: 16.0 mg/kg/injection, schedule: Q01DX005 (ip), vehicle: Klucel (hydroxypropylcellulose) (HPC) 98 % of control

COc1cc(CC2c3cc(OC)c(OC)cc3CCN2C)c(Oc2cc3c(cc2OC)-c2c(O)c(OC)cc4c2C(C3)N(C)CC4)cc1OC (stereo not drawn)
inactive: dose: 12.5 mg/kg/injection, schedule: Q04DX003 (ip), vehicle: saline with Tween-80 101 % of control | dose: 25.0 mg/kg/injection, schedule: Q04DX003 (ip), vehicle: saline with Tween-80 101 % of control | dose: 50.0 mg/kg/injection, schedule: Q04DX003 (ip), vehicle: saline with Tween-80 100 % of control | [13] 89 % of control | [14] 97 % of control

COC(C)(C)O/N=C(\C[n+]1ccccc1)c1ccccc1
inactive: dose: 3.13 mg/kg/injection, schedule: Q01DX009 (ip), vehicle: water 100 % of control | dose: 6.25 mg/kg/injection, schedule: Q01DX009 (ip), vehicle: water 104 % of control | dose: 12.5 mg/kg/injection, schedule: Q01DX009 (ip), vehicle: water 114 % of control | dose: 25.0 mg/kg/injection, schedule: Q01DX009 (ip), vehicle: water 105 % of control

C=CCn1nc(-c2ccccc2)c(-c2ccccc2)n1
inactive: dose: 100.0 mg/kg/injection, schedule: Q04DX003 (ip), vehicle: saline with Tween-80 98 % of control | [13] 95 % of control | [14] 89 % of control

CC(=O)Oc1ccc(OC(C)=O)c2c(OC(C)=O)c(C(CC=C(C)C)OC(C)=O)cc(OC(C)=O)c12 (stereo not drawn)
inactive: dose: 12.5 mg/kg/injection, schedule: Q04DX002 (ip), vehicle: saline with Tween-80 108 % of control | dose: 25.0 mg/kg/injection, schedule: Q04DX002 (ip), vehicle: saline with Tween-80 117 % of control

CCOc1nc2ccc(NC(C)CN3CCN(CCc4ccccc4)CC3)cc2s1 (stereo not drawn)
inactive: [10] 109 % of control | [11] 118 % of control

CC1(C)C2CCC(C2)C1OC(=O)c1ccccc1C(=O)O (stereo not drawn)
inactive: dose: 60.0 mg/kg/injection, schedule: Q01DX005 (ip), vehicle: saline with Tween-80 99 % of control | dose: 120.0 mg/kg/injection, schedule: Q01DX005 (ip), vehicle: saline with Tween-80 98 % of control | dose: 240.0 mg/kg/injection, schedule: Q01DX005 (ip), vehicle: saline with Tween-80 104 % of control

Cl/N=C1/C=CC=C/C1=N/Cl
inactive: [1] 106 % of control | [2] 104 % of control | [3] 101 % of control

COCCn1c(=N)c(C(=O)OC)nc2c3ccccc3ccc21
inactive: [7] 104 % of control | [8] 107 % of control | [9] 101 % of control

CCn1cc(C(=O)NC(C)C(=O)NC(C)P(=O)(O)O)c(=O)c2ccc(C)nc21 (stereo not drawn)
inactive: dose: 100.0 mg/kg/injection, schedule: Q04DX002 (ip), vehicle: saline with Tween-80 101 % of control | dose: 200.0 mg/kg/injection, schedule: Q04DX002 (ip), vehicle: saline with Tween-80 102 % of control | dose: 400.0 mg/kg/injection, schedule: Q04DX002 (ip), vehicle: saline with Tween-80 101 % of control
